Test results as given in PMC11009625, “Antibiotic class with potent in vivo activity targeting lipopolysaccharide synthesis in Gram-negative bacteria” (Proceedings of the National Academy of Sciences of the …, 2024).
≈ marks a conversion by molar mass, not a printed value. Where two headings read alike, the source gives them in different places.

Tests used:
[1] = test system: E. coli ATCC 25922; assay: Frequency of resistance and agar MIC, E. coli; type: cell-based; conditions: Escherichia coli, ATCC25922, read-out: Agar MIC E. coli ATCC 25922
Method: (§1) Minimum inhibitory concentration (MIC) values were determined according to the Clinical Laboratory Standards Institute guidelines. Frequency of resistance was determined by plating ~5 × 10^8 bacterial cells on agar-solidified media plates containing test compound at concentrations corresponding to four times the measured solid-media MIC of the strains. Colonies were counted after 24 h, restreaked onto media containing the same concentration of compound, and the MIC remeasured against the assayed compound. Genomic DNA from isolated clones was sequenced by paired-end sequencing on an Illumina MiSeq device. Complete experimental details available in SI Appendix. […]
(§2) Minimum inhibitory concentration (MIC) determination. […] Appropriate inoculation suspension density was assessed using a Sensititre Nephelometer with a Sensititre 0.5 […]
(§3) Frequency of Resistance. Frequency of resistance was assessed by spread plating between […] cfu of a freshly-grown culture of the strain of interest on plates containing a concentration of compound corresponding to 4 times the MIC of the strain (as determined by agar-dilution MIC). […] The frequency of resistance was determined by dividing the number of colonies obtained on the selective plates after 24 hours of growth by the calculated total population plated. […]

[2] = test system: K. pneumoniae ATCC 13883; assay: Frequency of resistance and agar MIC, K. pneumoniae; type: cell-based; conditions: Klebsiella pneumoniae, ATCC13883, read-out: Agar MIC K. pneumoniae ATCC 13883
Method: as §1, §2, §3

[3] = test system: K. pneumoniae SSI #3010 (EN124); assay: Neutropenic mouse peritonitis model, K. pneumoniae; type: in vivo, mice; conditions: single sc dose; for ED50: Klebsiella pneumoniae; for ED50 / 1-log effective dose, blood, K. pneumoniae / 2-log effective dose, blood, K. pneumoniae / 1-log effective dose, peritoneal fluid, K. pneumoniae / 2-log effective dose, peritoneal fluid, K. pneumoniae: modeled efficacy curves; for Efficacy against K. pneumoniae compared with ciprofloxacin (13 mg/kg): doses ≥50 mg/kg, mouse peritonitis
Method: PK and safety studies were done the Latvian Institute for Organic Synthesis (Riga, Latvia) and in vivo efficacy studies were done at Statens Serum Institut (Copenhagen, Denmark). Assays were done in accordance with the relevant permits at the respective sites (SI Appendix). For PK studies, plasma samples were taken from mice dosed subcutaneously and the samples were analyzed by UPLC/MS/MS. For in vivo efficacy studies, neutropenic mice were infected intraperitoneally with 10^6 bacteria and treated with subcutaneously with test compounds 1 h after infection. The mice were euthanized 4 h after treatment and serially diluted samples of blood and peritoneal fluid were plated onto blood agar plates. Complete experimental details available in SI Appendix.
Lantmännen) and water. The experimental procedures were performed in accordance with the guidelines of the European Community and local laws and policies (Directive 2010/63/EU), and all of the procedures were approved by Food and Veterinary Service, Riga, Latvia. […]
Bacterial strains and inoculum. E. coli EC 106-09 (EN122) and K. pneumoniae SSI #3010 (EN124) are clinical isolates from Denmark. Bacterial suspensions for inoculation of mice were prepared […]
at room temperature from fresh overnight cultures on 5% blood agar plates produced by SSI diagnostica (Copenhagen Denmark). The inoculum was prepared immediately before inoculation by suspending colonies in sterile 0.9% saline to an optical density of 0.13 at 540 nm, giving a density of 10^8 CFU/ml and further diluted in 0.9% saline to 2 x 10^6 CFU/ml before injecting into the mice. For each experiment, the size of the inoculum was determined by making ten-fold dilutions in 0.9% saline, of which 20 µl was plated on 5% blood agar plates with subsequent counting of colonies after incubation overnight at 35°C in ambient air.
Mice. Outbred female CD-1 mice 26-30 gram (Envigo, Netherlands) were housed at the animal facility at Statens Serum Institut. The temperature was 22 °C +/- 2 °C and the humidity was 55 +/- 10%. The mice were housed in individually ventilated type 3 macrolone cages with bedding from Tapvei. The air changes per hour were approximately 8-12 times (70-73 times per hours inside cages), and light/dark period was in 12-hours interval of 6 a.m.- 6 p.m./6 p.m – 6 a.m.
The mice had ad libitum access to domestic quality drinking water and food Teklad Global diet 2916C-Envigo) and occasionally peanuts and sunflower seeds (Køge Korn A/S). Further, the animals were offered Enviro-Dri nesting material and cardboard houses (Bio-serv).
Mouse peritonitis model. The mice were rendered neutropenic by injecting 0.5 mL cyclophosphamide solution, 200 mg/kg intraperitoneally at 4 days and 100 mg/kg at 1 day prior to inoculation. 1 h before inoculation, mice were treated orally with […] Nurofen (20 mg ibuprofen/mL corresponding to approximately 30 mg/kg) as a pain relief. Inoculation was performed by intraperitoneal injection of 0.5 ml of the bacterial suspension containing log 6
CFU. The mice were treated subcutaneously with 0.25 – 0.30 mL based on weight, in the neck region with a single dose of compound at 1 hour post inoculation. Mice were monitored for clinical signs of discomfort. 4 h after treatment the mice were anesthetized and blood was collected by heart puncture into EDTA tubes and thereafter mice were euthanized by cervical dislocation and peritoneal washes were performed by injecting 2 ml of sterile saline intraperitoneally, followed by gentle massage of the abdomen and opening the peritoneum to collect fluid. Full blood and peritoneal fluids were serially diluted (ten-fold dilutions) and 20 µl was plated on blood agar plates produced at the SSI diagniostica (Copenhagen, Denmark) with subsequent counting of colonies after incubation overnight at 35°C in ambient. All animal experiments were approved by the National Committee of Animal Ethics – Animal Experiment Inspectorate under the Danish Ministry of Justice.
Statistical analyses. […]

[4] = blood, read-out: ED50, blood, K. pneumoniae
[5] = peritoneal fluid, read-out: ED50, peritoneal fluid, K. pneumoniae

| Structure (SMILES) | MIC [1] | MIC [2] | ED50 [3, 4] | ED50 [3, 5] | Efficacy against K. pneumoniae compared with ciprofloxacin (13 mg/kg) [3] | 1-log effective dose, blood, K. pneumoniae ([3]; blood) | 2-log effective dose, blood, K. pneumoniae ([3]; blood) | 1-log effective dose, peritoneal fluid, K. pneumoniae ([3]; peritoneal fluid) | 2-log effective dose, peritoneal fluid, K. pneumoniae ([3]; peritoneal fluid) |
| --- | --- | --- | --- | --- | --- | --- | --- | --- | --- |
| Cc1cc(C#N)nc(N2CCN(S(=O)(=O)c3ccc(NC(=O)c4cc(CNCCCN)ccc4N(C)S(C)(=O)=O)cc3)CC2)n1.Cl.Cl [EBL-3599] | 2 µg/mL | 0.5 µg/mL | 20.2 mg/kg | 19.8 mg/kg | efficacy similar to ciprofloxacin | 20.2 mg/kg | 28 mg/kg | 20.4 mg/kg | 30.7 mg/kg |
| Cc1cc(C#N)nc(N2CCN(S(=O)(=O)c3ccc(NC(=O)c4cc(CN5CC(CN)C5)ccc4N(C)S(C)(=O)=O)cc3)CC2)n1 [EBL-3647] | 2 µg/mL (≈ 2.99 µM) | 0.5 µg/mL (≈ 0.749 µM) | 21 mg/kg | 21 mg/kg | efficacy similar to ciprofloxacin | 21 mg/kg | 27 mg/kg | 22.8 mg/kg | 37.3 mg/kg |
